Data from patent US5962434A, “Compounds for stimulating nerve growth” (The Johns Hopkins University School of Medicine, priority 1996, dated 1999).

Target: T1, myelin-associated glycoprotein (MAG) (Rattus norvegicus, UniProt P07722)
T1 sequence (P07722 20-626): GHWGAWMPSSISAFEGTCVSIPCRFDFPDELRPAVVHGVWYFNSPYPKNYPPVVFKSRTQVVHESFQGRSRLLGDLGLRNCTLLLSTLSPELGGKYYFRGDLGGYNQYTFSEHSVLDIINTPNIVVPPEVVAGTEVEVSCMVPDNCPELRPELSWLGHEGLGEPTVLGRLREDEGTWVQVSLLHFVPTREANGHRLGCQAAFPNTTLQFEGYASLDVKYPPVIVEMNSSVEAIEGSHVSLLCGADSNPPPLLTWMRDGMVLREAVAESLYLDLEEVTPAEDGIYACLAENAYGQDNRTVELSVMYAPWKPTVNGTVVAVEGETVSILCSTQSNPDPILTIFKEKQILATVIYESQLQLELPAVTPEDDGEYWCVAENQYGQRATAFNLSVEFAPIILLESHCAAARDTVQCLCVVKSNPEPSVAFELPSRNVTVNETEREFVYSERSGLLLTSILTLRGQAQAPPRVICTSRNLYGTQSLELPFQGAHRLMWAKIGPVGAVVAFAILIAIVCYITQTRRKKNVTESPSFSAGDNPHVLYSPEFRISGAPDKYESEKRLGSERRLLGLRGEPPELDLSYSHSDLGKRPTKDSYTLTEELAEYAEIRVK
Assay: Adherence of MAG-transfected COS cells to microwell surfaces on which gangliosides/glycolipids were adsorbed (LDH activity)
Conditions: for adhesion of MAG-transfected cells after neuraminidase treatment of the absorbed ganglioside: Vibrio cholerae neuraminidase-treated microwells; for MAG-transfected COS cells added that adhered: ganglioside-absorbed wells; for support of MAG-mediated cell adhesion: structure-function comparison, FIGS. 1C and 2

Substance | adhesion of MAG-transfected cells after neuraminidase treatment of the absorbed ganglioside | adherence of MAG-transfected COS cells to ganglioside-absorbed surface (artificial membrane monolayer with phosphatidylcholine and cholesterol, FIG. 1B) | binding compared to GM1b | adherence of control-transfected COS cells (control-transfected COS cells, FIG. 1B) | adhesion of MAG-transfected cells to control-treated microwells (control-treated (no neuraminidase) microwells, FIG. 1D) | MAG-transfected COS cells added that adhered | support of MAG-mediated cell adhesion | potency at supporting MAG-mediated cell adhesion relative to GT1b (more potent than GT1b, FIGS. 2 and 3) [fold]
NeuAc α2,3 Gal β1,3GalNAc β1,4(NeuAc α2,8 NeuAc α2,3) Gal β1, 4 Glc β1,1'Ceramide [GT1b] | did not support adhesion | adhered in a concentration-dependent manner | enhanced binding | did not bind | supported adhesion | 30-40% | supported MAG-mediated cell adhesion | 
NeuAc α2,3 Gal β1,3(NeuAc α2,6) GalNAc β1,4(NeuAc α2,8 NeuAc α2,3)Gal β1,4Glc β1,1'Ceramide [GQ1bα] | completely blocked |  |  |  |  | 70-80% |  | 8
NeuAc α2,3 Gal β1,3 GalNAc β1,4(NeuAc α2,3)Gal β1, 4Glcβ1,1'Ceramide [GD1a] |  |  | enhanced binding |  |  |  | supported MAG-mediated cell adhesion | 
